Results from patent US20250302862A1, “SMALL RNA DRUG FOR INHIBITING ACTIVITY OF CANCER CELLS” (Institute of Basic Medical Sciences Chinese Academy of …, priority 2022, published 2025).

Columns and labels:
[1] = test system: pancreatic cancer BXPC-3 cells; experiment: Cell invasion (Matrigel Transwell); format: cell-based, human; conditions: 100 nmol/L, jetPRIME, 72 h
Method: 1) Matrigel basement membrane matrix was thawed on crushed ice one night before and diluted with serum-free medium to a final concentration of 200-300 ug/mL. 100 uL of the diluted Matrigel was added to each upper chamber, let stand at 37° C. for 30 min, and the supernatant was aspirated. ASPC-1 cells and BXPC-3 cells with a cell density of more than 90% in 10 cm^2 dishes were digested and resuspended with 1 mL of serum-free medium and counted. 100,000 cells (100 uL) were plated in the upper chamber, and complete medium with 10% FBS was added to the lower chamber of each chamber. […]
1) Matrigel basement membrane matrix was thawed on crushed ice one night before and diluted with serum-free medium to a final concentration of 200-300 ug/mL. […] BXPC-3 cells with a cell density of more than 90% in 10 cm^2 dishes were digested and resuspended with 1 mL of serum-free medium and counted. […]

[2] = test system: primary lung cancer Kras^LSL-G12Dp53^fl/fl (KP) mouse model; experiment: Tumor tissue apoptosis, caspase-3 immunohistochemistry of lung sections; format: in vivo; conditions: 10 nmol daily by gavage for one month, vs NC group
Description: (§1) The mouse model of primary lung cancer was Kras^LSL-G12Dp53^fl/fl (KP).
(§2) Mice were weighed and assigned to the negative control group (NC group) and HQi-sRNA-2 group randomly. The NC group was the negative control, in which a sphingosine(d18:1)-NC-sRNA herbal medicine delivery system was constructed from NC-sRNA. The HQi-sRNA-2 group was the experimental group, in which a sphingosine(d18:1)-HQi-sRNA-2 herbal medicine delivery system was constructed from HQi-sRNA-2.
(§3) The herbal medicine delivery system was constructed by heating and mixing 10 nmol of sRNA, 100 ug of sphingosine(d18:1) and 300 ul of sterile enzyme-free water in a water bath at 90° C. for 15 minutes.
(§4) Each mouse with a uniform body weight was dosed by gavage. Each mouse was given 10 nmol of HQi-sRNA-2 mimic daily by gavage for one month.
The lungs of mice were collected to prepare pathological sections. The left lung was collected and sliced at the largest surface for every mouse, and subjected to immunohistochemistry of caspase-3. The area of positive cell population in the whole pathological section was counted, the tumor burden was calculated, and statistical analysis was performed.

cyclooxygenase-2 (COX2) [3] = experiment: COX2 mRNA and protein in lung tissues of mice with lung cancer; format: in vivo, mouse; conditions: lung tissues of KP mice, 10 nmol daily by gavage for one month
Description: Methods for animal experiment: the mouse model of primary lung cancer was KrasLSL-G12Dp53fl/fl (KP).
Mice were weighed and assigned to the NC group and HQi-sRNA-2 group randomly. The NC group was the negative control, in which a sphingosine(d18:1)-NC-sRNA herbal medicine delivery system was constructed from NC-sRNA. The HQi-sRNA-2 group was the experimental group, in which a sphingosine(d18:1)-HQi-sRNA-2 herbal medicine delivery system was constructed from HQi-sRNA-2.
as §3, §4
RNA and protein were extracted from the right lung of all mice.
(§5) The relative amount of COX-2 mRNA in the RNA in Method 1 and Method 2 was measured by RT-PCR and QPCR technologies.
(§6) The relative amount of COX-2 protein in the protein in Method 1 and Method 2 was measured by western blot technology.

[4] = Body weight of mice with primary lung cancer; format: in vivo, mouse; conditions: KP mice, 10 nmol daily by gavage for one month, sphingosine(d18:1) delivery system, vs NC group
Description: as §1, §2, §3, §4
The body weight of each mouse was recorded, the curve of body weight over time was plotted, and statistical analysis was performed.

cyclooxygenase-2 (COX2) [5] = experiment: COX2 mRNA (RT-PCR/QPCR) and protein (western blot) in H460 cells; format: cell-based, human; conditions: final concentration 10 nmol/L
Method: Method for cell experiment: H460 cells with a cell density of more than 90% in 10 cm2 dishes were plated in 12-well plates (2 plates) according to the cell growth rate, and transfected after 12 h, and the groups were divided as follows: • blank control group (4 wells): 200 uL of opti-MEM per well • negative control group (NC group) and experimental group (3 wells each): the system of each well was as follows • A. 100 uL of opti-MEM and 2 uL of iMax were mixed well for 5 min • B. 100 uL of opti-MEM and 5 uL of small RNA (final concentration 10 nmol/L) were mixed well • C. solution A and solution B were mixed well and let stand for 15 min, and then was added to each well at a 200 uL system • Note: 100 uL of nuclease-free water was added to 2 nmol of small RNA dry powder for dissolution at a storage concentration of 20 umol/L
Cells were collected with Trizo after 24 h of incubation and RNA was extracted. Cells on another plate were collected with RIPA lysis buffer after 48 h of incubation and protein was extracted.
as §5, §6

[6] = test system: pancreatic cancer ASPC-1 cells; experiment: Cell invasion (Matrigel Transwell); format: cell-based, human; conditions: 100 nmol/L, jetPRIME, 72 h
Method: 1) Matrigel basement membrane matrix was thawed on crushed ice one night before and diluted with serum-free medium to a final concentration of 200-300 ug/mL. 100 uL of the diluted Matrigel was added to each upper chamber, let stand at 37° C. for 30 min, and the supernatant was aspirated. ASPC-1 cells and BXPC-3 cells with a cell density of more than 90% in 10 cm^2 dishes were digested and resuspended with 1 mL of serum-free medium and counted. 100,000 cells (100 uL) were plated in the upper chamber, and complete medium with 10% FBS was added to the lower chamber of each chamber. Transfection was performed after 12 h, and the groups (3 wells per group) were divided as follows: • blank control group: 10 uL of jetPRIME Buffer • negative control group (NC group) and experimental group: 10 uL of jetPRIME Buffer was mixed well with 0.5 uL of jetPRIME reagent and 0.5 uL of small RNA and let stand for 15 min, and then was added to each well at a 10 uL system (final concentration 100 nmol/L) • Note: 100 uL of nuclease-free water was added to 2 nmol of small RNA dry powder for dissolution at a storage concentration of 20 umol/L
After 72 h, the medium in upper and lower chambers was discarded. The cells were fixed with paraformaldehyde at room temperature for 15 min, stained with 0.1% crystal violet at room temperature for 15 min, and rinsed with PBS. […]

Row | Substance | cell invasion [1] | tumor tissue apoptosis of mice with primary lung cancer [2] | mRNA level of COX2 (cyclooxygenase-2 (COX2) [3]; RT-PCR and QPCR) | protein level of COX2 (cyclooxygenase-2 (COX2) [3]; western blot) | body weight of mice with primary lung cancer [4] | mRNA level of COX2 (cyclooxygenase-2 (COX2) [5]; 24 h, RT-PCR and QPCR) | protein level of COX2 (cyclooxygenase-2 (COX2) [5]; 48 h, western blot) | cell invasion [6]
1 | MDM-sRNA-163: small RNA derived from Maytenus hookeri, sequence UGACUCUAGUCCGACUUUGUGAAAUGACU (listed as RNA, chemistry not given here) | inhibits | – | – | – | – | – | – | –
2 | HQi-sRNA-2: small RNA derived from Scutellaria baicalensis, sequence AUGGUUCGAUUCCGGAGAGGG (listed as RNA, chemistry not given here) | – | significantly increased | significantly down-regulate | significantly down-regulate | significantly maintained | significantly down-regulate | significantly down-regulate | –
3 | MDM-sRNA-39: small RNA derived from Maytenus hookeri, sequence GGGAUUGUAGUUCAAUUGGUCAGAGCACC (listed as RNA, chemistry not given here) | inhibits | – | – | – | – | – | – | inhibits
